Results published in ChEMBL document CHEMBL4251615, “Discovery of anilino-furo[2,3-d]pyrimidine derivatives as dual inhibitors of EGFR/HER2 tyrosine kinase and their anticancer activity” (Eur J Med Chem, 2018).
Activity calls are given as the source filed them. The calls are words filed in the database; no cut-off is given here.

What was measured:
A549 [1] = assay: Cytotoxicity against human A549 cells assessed as reduction in cell viability after 72 hrs by MTT assay; assay type: functional, cell-based; conditions: A549, 72 h
[2] = biological target: T1, Epidermal growth factor receptor (Homo sapiens, UniProt P00533); assay: Inhibition of recombinant human C-terminal His/N-terminal GST-tagged EGFR (668 to 1210 residues) expressed in baculovirus infected Sf9 cells at 10 uM using biotin-labeled poly[Glu:Tyr] (4:1) as substrate after 30 mins by Kinase-Glo plus luminescence assay relative to control
MCF7 = assay: Cytotoxicity against human MCF7 cells assessed as reduction in cell viability after 72 hrs by MTT assay; assay type: functional, cell-based; conditions: MCF7, 72 h
[3] = biological target: Receptor tyrosine-protein kinase erbB-2 (Homo sapiens) (UniProt P04626); assay: Inhibition of recombinant human N-terminal GST-tagged HER2 (679 to 1255 residues) expressed in baculovirus infected Sf9 cells at 10 uM using poly[Glu:Tyr] (4:1) as substrate after 40 mins by Kinase-Glo plus luminescence assay relative to control
Ehrlich [4] = assay: Antitumor activity against mouse EAC cells implanted in albino mouse assessed as tumor growth inhibition at 10 mg/kg, po once daily for 8 consecutive days relative to control; assay type: functional; conditions: read-out: TGI
A549 [5] = assay: Induction of apoptosis in human A549 cells assessed as necrotic cells after 24 hrs by Annexin V-FITC/propidium iodide staining based flow cytometry (reference value: 0.17%); assay type: functional
Ehrlich [6] = assay: Antitumor activity against mouse EAC cells implanted in albino mouse assessed as increase in cytochrome-c expression in tumor at 10 mg/kg, po once daily for 8 consecutive days by immunohistochemical analysis; assay type: functional, organism-based
Ehrlich [7] = assay: Antitumor activity against mouse EAC cells implanted in albino mouse assessed as focal cell death in thigh muscle tumor cells at 5 to 10 mg/kg, po once daily for 8 consecutive days by hematoxylin and eosin staining based light microscopic method; assay type: functional, organism-based
[8] = biological target: T1, Epidermal growth factor receptor; assay: Inhibition of recombinant human C-terminal His/N-terminal GST-tagged EGFR (668 to 1210 residues) expressed in baculovirus infected Sf9 cells using biotin-labeled poly[Glu:Tyr] (4:1) as substrate after 30 mins by Kinase-Glo plus luminescence assay
Ehrlich [9] = assay: Antitumor activity against mouse EAC cells implanted in albino mouse assessed as increase in caspase-3 expression in tumor at 10 mg/kg, po once daily for 8 consecutive days by immunohistochemical analysis relative to control; assay type: functional
A549 [10] = assay: Cell cycle arrest in human A549 cells assessed as accumulation at G2/M phase after 24 hrs by propidium iodide staining based flow cytometry relative to control; assay type: functional
Ehrlich [11] = assay: Antitumor activity against mouse EAC cells implanted in albino mouse assessed as tumor growth inhibition at 5 mg/kg, po once daily for 8 consecutive days relative to control; assay type: functional; conditions: read-out: TGI
A549 [12] = assay: Induction of apoptosis in human A549 cells assessed as live cells after 24 hrs by Annexin V-FITC/propidium iodide staining based flow cytometry (reference value: 97.93%); assay type: functional
Mus musculus [13] = assay: Toxicity in albino mouse implanted with mouse EAC cells assessed as body weight change at 5 to 10 mg/kg, po once daily for 8 consecutive days; assay type: organism-based; conditions: in vivo
Mus musculus [14] = assay: Toxicity in albino mouse implanted with mouse EAC cells assessed as change in organ index at 5 to 10 mg/kg, po once daily for 8 consecutive days; assay type: organism-based; conditions: in vivo
A549 [15] = assay: Induction of apoptosis in human A549 cells assessed as late apoptotic cells after 24 hrs by Annexin V-FITC/propidium iodide staining based flow cytometry (reference value: 0.11%); assay type: functional
A549 [16] = assay: Cell cycle arrest in human A549 cells assessed as accumulation at pre-G1 phase after 24 hrs by propidium iodide staining based flow cytometry relative to control; assay type: functional
A549 [17] = assay: Induction of apoptosis in human A549 cells assessed as early apoptotic cells after 24 hrs by Annexin V-FITC/propidium iodide staining based flow cytometry (reference value: 0.26%); assay type: functional
Ehrlich [18] = assay: Antitumor activity against mouse EAC cells implanted in albino mouse assessed as tumor growth inhibition administered orally once daily for 8 consecutive days; assay type: functional
A549 [19] = assay: Induction of apoptosis in human A549 cells assessed as increase in late apoptotic cells after 24 hrs by Annexin V-FITC/propidium iodide staining based flow cytometry relative to control; assay type: functional
Ehrlich [20] = assay: Antitumor activity against mouse EAC cells implanted in albino mouse assessed as cell death in thigh muscle tumor cells at 10 mg/kg, po once daily for 8 consecutive days by hematoxylin and eosin staining based light microscopic method; assay type: functional, organism-based
A549 [21] = assay: Induction of apoptosis in human A549 cells assessed as increase in early apoptotic cells after 24 hrs by Annexin V-FITC/propidium iodide staining based flow cytometry relative to control; assay type: functional

Sequence of Receptor tyrosine-protein kinase erbB-2 (Homo sapiens) (P04626 whole entry, the tested form may be a part): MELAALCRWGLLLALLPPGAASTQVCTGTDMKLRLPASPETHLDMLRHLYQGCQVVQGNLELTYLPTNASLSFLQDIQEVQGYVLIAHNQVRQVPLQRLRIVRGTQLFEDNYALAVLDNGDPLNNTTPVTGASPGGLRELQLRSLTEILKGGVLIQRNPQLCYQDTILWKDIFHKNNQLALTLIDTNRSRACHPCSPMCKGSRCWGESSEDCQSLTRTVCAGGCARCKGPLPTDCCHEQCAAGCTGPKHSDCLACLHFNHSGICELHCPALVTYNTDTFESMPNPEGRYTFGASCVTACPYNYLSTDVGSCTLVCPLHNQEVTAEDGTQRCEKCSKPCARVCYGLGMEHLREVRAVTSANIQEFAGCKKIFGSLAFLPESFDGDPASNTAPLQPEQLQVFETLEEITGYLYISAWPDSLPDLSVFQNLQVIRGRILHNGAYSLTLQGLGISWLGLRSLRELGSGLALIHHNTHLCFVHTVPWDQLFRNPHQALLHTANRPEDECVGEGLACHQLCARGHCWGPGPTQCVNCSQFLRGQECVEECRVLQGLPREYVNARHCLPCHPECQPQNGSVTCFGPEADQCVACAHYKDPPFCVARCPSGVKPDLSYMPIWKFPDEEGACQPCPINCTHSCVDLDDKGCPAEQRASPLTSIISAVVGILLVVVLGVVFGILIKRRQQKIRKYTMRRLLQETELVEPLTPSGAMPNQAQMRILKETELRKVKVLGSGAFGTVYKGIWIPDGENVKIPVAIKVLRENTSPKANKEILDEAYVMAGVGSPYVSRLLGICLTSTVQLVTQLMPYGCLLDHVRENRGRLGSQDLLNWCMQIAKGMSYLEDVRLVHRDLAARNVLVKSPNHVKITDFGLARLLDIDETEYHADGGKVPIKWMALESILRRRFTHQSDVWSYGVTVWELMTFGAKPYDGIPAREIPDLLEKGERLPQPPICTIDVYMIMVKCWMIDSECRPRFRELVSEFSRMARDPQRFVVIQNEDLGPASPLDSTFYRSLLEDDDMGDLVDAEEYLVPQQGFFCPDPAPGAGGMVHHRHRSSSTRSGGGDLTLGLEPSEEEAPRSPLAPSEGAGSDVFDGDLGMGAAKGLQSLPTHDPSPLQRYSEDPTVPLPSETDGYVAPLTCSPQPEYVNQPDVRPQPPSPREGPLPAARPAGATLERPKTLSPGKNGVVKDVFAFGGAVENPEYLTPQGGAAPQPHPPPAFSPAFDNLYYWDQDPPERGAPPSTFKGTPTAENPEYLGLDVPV
T1 sequence (P00533 whole entry, the tested form may be a part): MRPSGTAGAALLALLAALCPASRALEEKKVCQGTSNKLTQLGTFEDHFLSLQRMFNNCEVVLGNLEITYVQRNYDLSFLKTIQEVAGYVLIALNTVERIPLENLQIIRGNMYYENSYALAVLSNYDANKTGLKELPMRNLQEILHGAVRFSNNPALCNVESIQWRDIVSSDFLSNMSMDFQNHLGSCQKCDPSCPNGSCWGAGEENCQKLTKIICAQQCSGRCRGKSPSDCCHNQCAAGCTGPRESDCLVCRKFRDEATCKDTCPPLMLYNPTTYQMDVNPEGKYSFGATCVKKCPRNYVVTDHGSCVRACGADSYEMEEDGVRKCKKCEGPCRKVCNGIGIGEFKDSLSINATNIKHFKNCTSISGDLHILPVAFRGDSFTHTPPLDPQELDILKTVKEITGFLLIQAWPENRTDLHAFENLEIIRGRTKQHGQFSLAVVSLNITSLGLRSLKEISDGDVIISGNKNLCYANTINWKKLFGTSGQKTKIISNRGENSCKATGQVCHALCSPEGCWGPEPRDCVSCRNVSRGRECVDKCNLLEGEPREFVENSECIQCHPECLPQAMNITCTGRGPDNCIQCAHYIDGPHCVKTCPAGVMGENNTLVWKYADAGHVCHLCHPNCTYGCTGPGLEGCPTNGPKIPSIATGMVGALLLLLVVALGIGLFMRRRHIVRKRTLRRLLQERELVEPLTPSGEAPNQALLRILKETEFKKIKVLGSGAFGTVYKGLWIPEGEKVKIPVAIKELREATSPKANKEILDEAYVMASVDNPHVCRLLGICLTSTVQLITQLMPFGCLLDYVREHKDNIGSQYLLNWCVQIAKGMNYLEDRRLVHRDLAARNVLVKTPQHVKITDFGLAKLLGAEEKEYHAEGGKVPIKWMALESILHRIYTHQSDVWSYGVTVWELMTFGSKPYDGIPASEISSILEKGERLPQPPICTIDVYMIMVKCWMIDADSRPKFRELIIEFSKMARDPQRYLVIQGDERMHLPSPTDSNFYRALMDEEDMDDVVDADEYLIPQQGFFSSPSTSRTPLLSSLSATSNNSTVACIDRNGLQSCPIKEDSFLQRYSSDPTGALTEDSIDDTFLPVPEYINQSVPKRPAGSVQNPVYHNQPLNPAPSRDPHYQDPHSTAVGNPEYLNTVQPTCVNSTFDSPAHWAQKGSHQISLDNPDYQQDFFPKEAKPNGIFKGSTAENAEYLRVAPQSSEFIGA

| SMILES | IC50 (A549 [1]) [µM] | inhibition [2] [%] | IC50 (MCF7) [µM] | further results |
| --- | --- | --- | --- | --- |
| Cc1oc2ncnc(Nc3cccc(Br)c3)c2c1CO | 102 | 70 | 11 |  |
| CCOC(=O)c1c(C)oc2ncnc(Nc3ccc(OCc4ccccc4)cc3)c12 | > 1000 | 10 | > 1000 | inhibition [3]: 3% |
| CCOC(=O)c1c(C)oc2ncnc(Nc3ccccc3)c12 | > 1000 | 22 | 851 |  |
| C#Cc1cccc(Nc2ncnc3oc(C)c(C(=O)OCC)c23)c1 | > 1000 | 26 | > 1000 |  |
| CCCNC(=O)c1c(C)oc2ncnc(Nc3cccc(C)c3)c12 | > 1000 | 20 | > 1000 |  |
| CCOC(=O)c1c(C)oc2ncnc(Nc3cccc(Br)c3)c12 | > 1000 | 26 | > 1000 |  |
| Cc1oc2ncnc(Nc3ccc(OCc4cccc(F)c4)c(Cl)c3)c2c1C(=O)O | 21.4 | 100 | 46 | inhibition in vivo at 10 mg/kg (Ehrlich [4]): 49%; Activity (A549 [5]): 0.8%; Activity (Ehrlich [6]): Active; inhibition [3]: 65%; Activity (Ehrlich [7]): Active; IC50 [8]: 0.951 µM; Activity (Ehrlich [9]): 51%; fold change (FC) (A549 [10]): 3; inhibition in vivo at 5 mg/kg (Ehrlich [11]): 34.9%; Activity (A549 [12]): 88.77%; Activity (Mus musculus [13]): Non-Toxic; Activity (Mus musculus [14]): Non-Toxic; Activity (A549 [15]): 4.84%; fold change (FC) (A549 [16]): 17; Activity (A549 [17]): 3.72% |
| CCOC(=O)c1c(C)oc2ncnc(Nc3cccc(OC)c3)c12 | > 1000 | 6 | > 1000 |  |
| Cc1oc2ncnc(Nc3cccc(Br)c3)c2c1C(=O)NCCO | 17.4 | 73 | 22 |  |
| CCOC(=O)c1c(C)oc2ncnc(Nc3ccc(OCc4ccc(C)cc4)cc3)c12 | > 1000 | 6 | > 1000 | inhibition [3]: 20% |
| CCOC(=O)c1c(C)oc2ncnc(Nc3ccc(OCc4cccc(F)c4)c(Cl)c3)c12 | 0.5 | 18 | 257 | inhibition in vivo at 10 mg/kg (Ehrlich [4]): 67.1%; Activity (A549 [5]): 1.67%; Activity (Ehrlich [6]): Active; Activity (Ehrlich [18]): Dose-dependent effect; inhibition [3]: 6%; fold change (FC) (A549 [19]): 79; fold change (FC) (Ehrlich [9]): >2; fold change (FC) (A549 [10]): 5; inhibition in vivo at 5 mg/kg (Ehrlich [11]): 35.1%; Activity (A549 [12]): 81.19%; Activity (Mus musculus [13]): Non-Toxic; Activity (Mus musculus [14]): Non-Toxic; Activity (A549 [15]): 8.69%; Activity (Ehrlich [20]): Active; fold change (FC) (A549 [16]): 32; fold change (FC) (A549 [21]): 25; Activity (A549 [17]): 6.59% |
| Cc1oc2ncnc(Nc3cccc(Br)c3)c2c1C(=O)O | 43 | 94 | 68 | inhibition in vivo at 10 mg/kg (Ehrlich [4]): 70.8%; Activity (A549 [5]): 0.66%; Activity (Ehrlich [6]): Active; IC50 [8]: 0.752 µM; fold change (FC) (Ehrlich [9]): >2; fold change (FC) (A549 [10]): 2; inhibition in vivo at 5 mg/kg (Ehrlich [11]): 61.4%; Activity (A549 [12]): 92.02%; Activity (Mus musculus [13]): Non-Toxic; Activity (Mus musculus [14]): Non-Toxic; Activity (A549 [15]): 3.05%; Activity (Ehrlich [20]): Active; fold change (FC) (A549 [16]): 12; Activity (A549 [17]): 2.78% |
| Cc1oc2ncnc(Nc3cccc(Cl)c3)c2c1C(=O)NC(C)C | > 1000 | 21 | 190 |  |
| Cc1oc2ncnc(Nc3cccc(Cl)c3)c2c1C(=O)NCCO | > 1000 | 85 | > 1000 | IC50 [8]: 2.7 µM |
| CCOC(=O)c1c(C)oc2ncnc(Nc3cccc(Cl)c3)c12 | > 1000 | 28 | > 1000 |  |
| CCOC(=O)c1c(C)oc2ncnc(Nc3ccc(OCc4cccc(Cl)c4)cc3)c12 | 513 | 5 | 54 | inhibition [3]: 7% |
| Cc1oc2ncnc(Nc3cccc(Cl)c3)c2c1C(=O)O | 95.5 | 85 | 57.5 | IC50 [8]: 0.901 µM |
| CCOC(=O)c1c(C)oc2ncnc(Nc3cccc(C)c3)c12 | > 1000 | 52 | > 1000 |  |
| Cc1cccc(Nc2ncnc3oc(C)c(CO)c23)c1 | 24 | 72 | 17 |  |
| COc1cc2ncnc(Nc3ccc(F)c(Cl)c3)c2cc1OCCCN1CCOCC1 [GEFITINIB] |  |  |  | Activity (A549 [5]): 1.67%; Activity (Ehrlich [6]): Active; Activity (Ehrlich [9]): Active; Activity (A549 [12]): 84.12%; Activity (A549 [15]): 6.72%; Activity (Ehrlich [20]): Active; Activity (A549 [17]): 5.84% |
| Cc1cccc(Nc2ncnc3oc(C)c(C(=O)O)c23)c1 | 100 | 58 | 57.5 |  |
| Cc1oc2ncnc(Nc3ccccc3)c2c1C(=O)O | 191 | 30 | 246 |  |
